Solubility and oral bioavailability data for two compounds are collected here from US10744137B1, “Liquisolid tablet containing combined dose of tadalafil and dapoxetine” (King Abdulaziz University, priority 2020, dated 2020).

≈ marks a conversion by molar mass, not a printed value. Read-outs that look alike come from different tables or passages of the source.

Data set [1] in a line: Solubility studies of TDL and DPX in nonvolatile solvents and distilled water. Format: physicochemical. The method, then:
Solubility studies of TDL and DPX were determined in various nonvolatile solvents separately as described previously with full details in the literature (Al-Subaie et al., 2015)(Aldawsari et al., 2018)(El-Say et al., 2019). The solvents used in this study were Span® 80, Tween® 80, PEG 400, PEG 200, Labrasol®, Kolliphor® EL, glycerin and distilled water were used.

For data set [2] the following is noted: DPX, low and variable (El-Say et al., 2019); cited from earlier work.

Consider `CN(C)[C@@H](CCOc1cccc2ccccc12)c1ccccc1` [DPX, dapoxetine], for which the solubility was determined as 35.6 mg/mL (≈ 117 mM) in data set [1] (in distilled water, read-out: Solubility of DPX) and 57.7 mg/mL (≈ 189 mM) in data set [1] (oil or lipid, in Labrasol, read-out: Solubility of DPX). Besides, in data set [2], the oral bioavailability was 15-76%.
For `CN1CC(=O)N2[C@H](c3ccc4c(c3)OCO4)c3[nH]c4ccccc4c3C[C@@H]2C1=O` [TDL, tadalafil], the solubility in data set [1] (in distilled water, read-out: Solubility of TDL) was determined as 0.049 mg/mL (≈ 0.126 mM); in data set [1] (organic solvent or mixture, in PEG 200, read-out: Solubility of TDL) it was 10.1 mg/mL (≈ 25.9 mM).

What is called solubility is the dissolved amount per volume that the medium holds.
